From paper PMC10177692, “Novel topoisomerase II/EGFR dual inhibitors: design, synthesis and docking studies of naphtho[2′,3′:4,5]thiazolo[3,2-a]pyrimidine hybrids as potential anticancer agents with apoptosis inducing activity” (Journal of Enzyme Inhibition and Medicinal Chemistry, 2023)

How the values were obtained:
EGFR = biological target: T1, EGFR (Homo sapiens, UniProt P00533); assay: EGFR kinase assay kit; assay type: biochemical; settings: mean ± SE
T1 construct: purchased BPS Bioscience, San Diego, CA, USA
T1 sequence (P00533 25-1210): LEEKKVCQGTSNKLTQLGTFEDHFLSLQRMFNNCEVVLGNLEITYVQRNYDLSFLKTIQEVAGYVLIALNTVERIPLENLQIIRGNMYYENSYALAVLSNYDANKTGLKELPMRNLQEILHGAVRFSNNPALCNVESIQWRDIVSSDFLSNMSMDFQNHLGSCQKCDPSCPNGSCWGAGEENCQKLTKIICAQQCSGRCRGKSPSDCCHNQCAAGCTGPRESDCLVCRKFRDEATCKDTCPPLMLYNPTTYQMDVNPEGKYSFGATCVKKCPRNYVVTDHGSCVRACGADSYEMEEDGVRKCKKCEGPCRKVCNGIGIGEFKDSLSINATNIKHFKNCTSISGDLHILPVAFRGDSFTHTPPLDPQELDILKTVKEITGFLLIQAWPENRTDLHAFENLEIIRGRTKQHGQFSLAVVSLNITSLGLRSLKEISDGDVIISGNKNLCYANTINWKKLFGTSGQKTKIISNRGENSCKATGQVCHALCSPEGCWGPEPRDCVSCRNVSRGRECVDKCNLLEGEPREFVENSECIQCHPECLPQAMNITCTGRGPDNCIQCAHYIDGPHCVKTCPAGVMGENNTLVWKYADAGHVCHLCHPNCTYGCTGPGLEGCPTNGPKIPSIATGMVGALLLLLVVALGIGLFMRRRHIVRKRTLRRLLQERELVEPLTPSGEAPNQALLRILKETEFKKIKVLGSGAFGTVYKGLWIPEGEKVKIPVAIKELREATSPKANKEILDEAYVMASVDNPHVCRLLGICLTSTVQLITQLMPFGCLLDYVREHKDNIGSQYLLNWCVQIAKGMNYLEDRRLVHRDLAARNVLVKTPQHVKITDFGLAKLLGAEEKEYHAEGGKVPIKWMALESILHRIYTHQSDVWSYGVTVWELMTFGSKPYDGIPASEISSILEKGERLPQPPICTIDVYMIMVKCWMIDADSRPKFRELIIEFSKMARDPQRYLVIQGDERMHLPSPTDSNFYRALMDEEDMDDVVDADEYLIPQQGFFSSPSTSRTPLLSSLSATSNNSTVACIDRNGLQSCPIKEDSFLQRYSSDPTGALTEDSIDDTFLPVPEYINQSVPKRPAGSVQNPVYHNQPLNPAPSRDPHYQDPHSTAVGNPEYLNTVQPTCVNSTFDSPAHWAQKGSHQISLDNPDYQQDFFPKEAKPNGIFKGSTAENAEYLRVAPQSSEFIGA
Description: The kinase activity of EGFR was assessed for 6a, 6c and 6i hybrids using EGFR kinase assay kit (BPS Bioscience, San Diego, CA, USA) based on the manufacturer’s instructions. Three independent experiments were performed for each compound and Mean ± SE were calculated.

MCF-7 cells = assay: Annexin V-FITC/PI staining assay; assay type: cell-based, human; set-up: Apoptosis Total / Apoptosis Early / Apoptosis Late / Necrosis: unit not given here; settings: for increase in cell necrosis compared to control / increase of cell population in early apoptotic stage compared to control / increase of late apoptotic cell population compared to control: MCF-7, at IC50; for Apoptosis Late / Apoptosis Early / Necrosis / Apoptosis Total: MCF-7, at IC50, 24 h; for Apoptosis Late: control 0.15; for Apoptosis Early: control 0.38; for Necrosis: control 1.36; for Apoptosis Total: control 1.89
Description: Cells underwent three washing cycles using ice cold PBS, then suspended in PBS. Cell apoptosis was detected by Annexin V-FITC Apoptosis Detection Kit (BioVisionResearch Products, USA). The cells were stained using PI staining solution, Annexin V-FITC and incubated for 15 min at room temperature in a dark place. Cells were investigated by flow cytometry (Ex = 488 nm; Em = 530 nm) using FACS calibre (Becton Dickinson, Heidelberg, Germany)[48].

caspase-9 = assay: Caspase-9 ELISA in MCF-7 cells; assay type: cell-based, human; settings: for Caspase 9 Conc.(pg/ml): MCF-7, at IC50, control 4.51 ± 0.29
Description: The effect of 6a, 6c and 6i hybrids on caspase-7 and −9 levels in MCF-7 cell line was measured using Human Caspase-7 ELISA Kit (BioVision Inc., Milpitas, CA 95035 USA) and Human Caspase-9 ELISA Kit (EIA-4860, DRG, USA), respectively, and according to the manufacturer’s instructions. The results were expressed as Mean ± SE of three independent experiments.

IC50 (EGFR; read-out: EGFR inhibitory activity IC50)	SMILES	increase in cell necrosis compared to control (MCF-7 cells)	increase of cell population in early apoptotic stage compared to control (MCF-7 cells)	increase of late apoptotic cell population compared to control (MCF-7 cells)	Apoptosis Late (MCF-7 cells)	Apoptosis Early (MCF-7 cells)	Necrosis (MCF-7 cells)	Apoptosis Total (MCF-7 cells)	Caspase 9 FLD (caspase-9; MCF-7, at IC50, fold of control)	Caspase 9 Conc.(pg/ml) (caspase-9)	EGFR inhibitory activity IC50 (EGFR)
16 ± 0.47 nM	COc1ccc(-c2nc3sc4c(n3c(=O)c2C#N)C(=O)c2ccccc2C4=O)cc1 [Compound 6a, 2–(4-Methoxyphenyl)-4,6,11-trioxo-6,11-dihydro-4H-naphtho[2′,3′:4,5]-thiazolo[3,2-a]pyrimidine-3-carbonitrile]	6.78 folds	13.84 folds	126.13 folds	18.92	5.26	9.23	33.41	4.69 fold	21.17 ± 0.38 pg/mL	–
–	N#Cc1c(-c2ccc([N+](=O)[O-])cc2)nc2sc3c(n2c1=O)C(=O)c1ccccc1C3=O [Compound 6i, 2–(4-Nitrophenyl)-4,6,11-trioxo-6,11-dihydro-4H-naphtho[’',’':4,5]thiazolo-[3,2-a]pyrimidine-3-carbonitrile]	10.52 folds	9.57 folds	182.06 folds	27.31	3.64	14.31	45.26	–	32.29 ± 0.33 pg/mL	nearly equipotent to that of erlotinib
